Laboratory results reported in the NIST ThermoML archive (doi:10.1021/acs.jced.8b00662).
Numbers after ± are expanded uncertainties.

Key:
[1] = xn = mol fraction of the nth substance listed; conditions: 100 kPa, Liquid; for viscosity: Falling or rolling sphere viscometry; for mass density: Vibrating tube method
[2] = 100 kPa, Liquid; for viscosity: Falling or rolling sphere viscometry; for mass density: Vibrating tube method

OCC1CC1 [cyclopropylmethanol] + CC(C)C1CCCCC1
[1], x2 = 0
Conditions	mass density [kg/m3]	viscosity [mPa·s]
293.15 K	913.02 ± 1.1	3.988 ± 0.085
298.15 K	908.96 ± 1.1	3.455 ± 0.074
303.15 K	904.87 ± 1.1	3.008 ± 0.064
308.15 K	900.74 ± 1.1	2.635 ± 0.056
313.15 K	896.59 ± 1.1	2.321 ± 0.049
318.15 K	892.38 ± 1.1	2.054 ± 0.044
323.15 K	888.17 ± 1.1	1.825 ± 0.039
328.15 K	883.86 ± 1.1	1.629 ± 0.035
333.15 K	879.52 ± 1.1	1.46 ± 0.031
338.15 K	875.1 ± 1.1	1.317 ± 0.028
343.15 K	870.62 ± 1.1	1.19 ± 0.025

OCC1CC1 [cyclopropylmethanol]
[2]
Conditions	mass density [kg/m3]	viscosity [mPa·s]
293.15 K	913.02 ± 1.1	3.988 ± 0.085
298.15 K	908.96 ± 1.1	3.455 ± 0.074
303.15 K	904.87 ± 1.1	3.009 ± 0.064
308.15 K	900.74 ± 1.1	2.635 ± 0.056
313.15 K	896.59 ± 1.1	2.321 ± 0.049
318.15 K	892.38 ± 1.1	2.054 ± 0.044
323.15 K	888.17 ± 1.1	1.825 ± 0.039
328.15 K	883.86 ± 1.1	1.629 ± 0.035
333.15 K	879.52 ± 1.1	1.46 ± 0.031
338.15 K	875.1 ± 1.1	1.316 ± 0.028
343.15 K	870.62 ± 1.1	1.19 ± 0.025

c1ccc2c(c1)CCCC2 [1,2,3,4-tetrahydronaphthalene] + CC(C)C1CCCCC1
[1], x1 = 1
Conditions	mass density [kg/m3]	viscosity [mPa·s]
293.15 K	968.89 ± 1.2	2.233 ± 0.047
298.15 K	964.92 ± 1.2	2.019 ± 0.043
303.15 K	960.96 ± 1.1	1.838 ± 0.039
308.15 K	956.99 ± 1.1	1.681 ± 0.036
313.15 K	953.03 ± 1.1	1.546 ± 0.033
318.15 K	949.05 ± 1.1	1.428 ± 0.03
323.15 K	945.1 ± 1.1	1.324 ± 0.028
328.15 K	941.13 ± 1.1	1.233 ± 0.026
333.15 K	937.17 ± 1.1	1.151 ± 0.024
338.15 K	933.19 ± 1.1	1.079 ± 0.023
343.15 K	929.2 ± 1.1	1.013 ± 0.022

CC(C)C1CCCCC1 [(1-methylethyl)cyclohexane]
[2]
Conditions	mass density [kg/m3]	viscosity [mPa·s]
293.15 K	802.14 ± 0.97	1.093 ± 0.023
298.15 K	798.24 ± 0.97	1.016 ± 0.022
303.15 K	794.34 ± 0.96	0.947 ± 0.02
308.15 K	790.43 ± 0.96	0.886 ± 0.019
313.15 K	786.51 ± 0.95	0.831 ± 0.018
318.15 K	782.59 ± 0.95	0.782 ± 0.017
323.15 K	778.66 ± 0.95	0.738 ± 0.016
328.15 K	774.72 ± 0.94	0.698 ± 0.015
333.15 K	770.77 ± 0.94	0.661 ± 0.014
338.15 K	766.81 ± 0.93	0.628 ± 0.013
343.15 K	762.84 ± 0.93	0.598 ± 0.013

c1ccc2c(c1)CCCC2 [1,2,3,4-tetrahydronaphthalene]
[2]
Conditions	mass density [kg/m3]	viscosity [mPa·s]
293.15 K	968.89 ± 1.2	2.233 ± 0.047
298.15 K	964.92 ± 1.2	2.019 ± 0.043
303.15 K	960.96 ± 1.1	1.838 ± 0.039
308.15 K	956.99 ± 1.1	1.681 ± 0.036
313.15 K	953.03 ± 1.1	1.546 ± 0.033
318.15 K	949.05 ± 1.1	1.428 ± 0.03
323.15 K	945.1 ± 1.1	1.324 ± 0.028
328.15 K	941.13 ± 1.1	1.233 ± 0.026
333.15 K	937.17 ± 1.1	1.151 ± 0.024
338.15 K	933.19 ± 1.1	1.079 ± 0.023
343.15 K	929.2 ± 1.1	1.013 ± 0.022

c1ccc2c(c1)CCCC2 [1,2,3,4-tetrahydronaphthalene] + OCC1CC1
[1], x1 = 1
Conditions	mass density [kg/m3]	viscosity [mPa·s]
293.15 K	968.89 ± 1.2	2.233 ± 0.047
298.15 K	964.92 ± 1.2	2.019 ± 0.043
303.15 K	960.96 ± 1.1	1.838 ± 0.039
308.15 K	956.99 ± 1.1	1.681 ± 0.036
313.15 K	953.03 ± 1.1	1.546 ± 0.033
318.15 K	949.05 ± 1.1	1.428 ± 0.03
323.15 K	945.1 ± 1.1	1.324 ± 0.028
328.15 K	941.13 ± 1.1	1.233 ± 0.026
333.15 K	937.17 ± 1.1	1.151 ± 0.024
338.15 K	933.19 ± 1.1	1.079 ± 0.023
343.15 K	929.2 ± 1.1	1.013 ± 0.022
